The values below come from publication PMC10070462, “Drug cytotoxicity screening using human intestinal organoids propagated with extensive cost-reduction strategies” (Scientific Reports, 2023).

Entries after “also recorded” stand apart in the source; their conditions may differ. Read-outs that look alike come from different tables or passages of the source.

Series [1] relates to hiPSO-derived IECs. Kind of series: Cell viability of dispersed hiPSO-derived IECs (CellTiter-Glo 3D). The following applies: for IEC-selective dose-dependent cytotoxicity: dose-dependent analysis, dispersed IECs from hiPSOs and hPIOs versus Caco-2 cells, Fig. 4D; for toxicity against IECs (cell viability): indicated doses, dispersed hiPSO-derived IECs, Fig. 5A, B; for effect of kinase inhibitor on dose-dependent cytotoxicity induced by YC-1: 10 µM inhibitor with 0-30 µM YC-1, 48 h, Fig. 6A-C.

In series [2] the test system is hiPSO-derived IECs.
The next series concerns hPIO-derived IECs. Kind of series: Cell viability of dispersed hPIO-derived IECs (CellTiter-Glo 3D). The following applies: 1 µM, 48 h, dispersed IECs of hPIOs, Fig. 4A.
The next series concerns Caco-2 cells. Briefly: Cell viability of Caco-2 cells (CellTiter-Glo 3D), counter-assay. The class given is cell-based, human. To be noted: dose-dependent analysis, Fig. 4D.
Series [3] concerns caspase-8, RIP1, caspase-3, PARP, XIAP in hiPSO-derived IECs. Briefly: Western blot analysis of apoptotic proteins in hiPSO-derived IECs. The format is cell-based, human. To be noted: 0, 1, 10 µM, 14 h, Fig. 5D. On the procedure:
After the preparation of lysis buffer [50 mM Tris-HCl (pH 8.0), 150 mM NaCl, 1% Triton X-100, 0.5% deoxycholate, 0.1% sodium dodecyl sulfate (SDS), and a protease inhibitor cocktail (Nacalai Tesque)], cell lysates were subjected to SDS-polyacrylamide gel electrophoresis and transferred onto a polyvinylidene difluoride membrane. The membrane was blocked with Blocking One (Nacalai Tesque) for 1 h at room temperature (RT), incubated overnight at 4 °C with primary antibodies against caspase-3 (1:1000), caspase-8 (1:1000), PARP (1:1000), RIP1 (1:1000), XIAP (1:100), and β-actin (1:200), and incubated with secondary antibodies for 1 h at RT. Chemiluminescent signals were determined using Fusion Solo S (Vilber). A pre-stained ladder protein marker (XL-Ladder Broad, APRO Science) that was not visible as a chemiluminescent signal was used to determine the position of molecular weights. Full-scan images were represented in the Supplementary Information.

Series [4] has as its system CCND1 and VIL1 mRNA in hiPSO-derived IECs. Briefly: qRT-PCR of mRNA levels in hiPSO-derived IECs. The format is cell-based, human. To be noted: 0, 1, 10 µM, 48 h, Fig. 5E. On the procedure: Total cellular RNA was extracted using RNeasy Mini Kit (Qiagen). Reverse transcription was performed using a high-capacity cDNA Reverse Transcription Kit (Thermo Fisher Scientific). The mRNA levels were measured by fluorescence real-time PCR on StepOnePlus (Thermo Fisher Scientific) using PrimeTime qPCR Probes (Integrated DNA Technologies). The 18S rRNA levels were used as an internal control to normalize the mRNA levels of each gene.

Consider `CC1=C(/C=C/C(C)=C/C=C/C(C)=C/C(=O)Nc2ccc(O)cc2)C(C)(C)CCC1` [4-HPR, N-(4-hydroxyphenyl)retinamide], for which the IEC-selective dose-dependent cytotoxicity entry with hiPSO-derived IECs [1] was “identified”.
Same read-out and setting: under `CN(C)CC[C@H](CSc1ccccc1)Nc1ccc(S(=O)(=O)NC(=O)c2ccc(N3CCN(Cc4ccccc4-c4ccc(Cl)cc4)CC3)cc2)cc1[N+](=O)[O-]` [ABT-737] stands “identified”.
Take `COC(=O)c1ccc(O)c(NC(=O)COc2ccc(C34CC5CC(CC(C5)C3)C4)cc2)c1` [LW6]: the “toxicity against IECs (cell viability)” value in the series with hiPSO-derived IECs [1] (48 h) is on record as “little toxicity”.
`CCCCCCCC/C=C\CCCCCCCC(=O)NCCc1ccc(O)c(O)c1` [N-oleoyldopamine]: in the series with hiPSO-derived IECs [2], the IEC-selective dose-dependent cytotoxicity entry was “identified”.
Take `COc1cccc(-c2cc(=O)c3ccccc3o2)c1N` [PD98059]: the “inhibition of cytotoxicity of 1 µM YC-1” value in the series on hiPSO-derived IECs [1] (0-30 µM PD98059 with 1 µM YC-1, 48 h, Fig. 6D) is reported as “in a dose-dependent manner”. Further, the “inhibition of cytotoxicity caused by 4-HPR” value with hiPSO-derived IECs [1] (10 µM PD98059 with 0-30 µM 4-HPR, 48 h, Fig. 6F) was “failed to inhibit”. In addition, the “inhibition of cytotoxicity caused by ABT-737” value in the series on hiPSO-derived IECs [1] (10 µM PD98059 with 0-30 µM ABT-737, 48 h, Fig. 6E) was “failed to inhibit”. For the same compound, the “inhibition of cytotoxicity caused by N-oleoyldopamine” value with hiPSO-derived IECs [1] (10 µM PD98059 with 0-30 µM N-oleoyldopamine, 48 h, Fig. 6H) is reported as “failed to inhibit”. Further, the “inhibition of cytotoxicity caused by ivermectin” value in the series with hiPSO-derived IECs [1] (10 µM PD98059 with 0-30 µM ivermectin, 48 h, Fig. 6G) was “failed to inhibit”. Moreover, the “inhibition of YC-1-induced cytotoxicity in IECs from hiPSOs expanded with Matrigel” value in the series on hiPSO-derived IECs [1] (10 µM PD98059 with 1 µM YC-1, 48 h, Figure S5) is given as “inhibited”. In the series on hiPSO-derived IECs [1], the “effect of kinase inhibitor on dose-dependent cytotoxicity induced by YC-1” value (“effect of kinase inhibitor” below) is reported as “substantially prevented”.
`CS(=O)(=O)c1ccc(Oc2cc(F)cc(C#N)c2)c2c1[C@H](O)C(F)(F)C2` [PT-2385]: in the series with hiPSO-derived IECs [1] (48 h), the “toxicity against IECs (cell viability)” value was “little toxicity”.
On to `C[S+]([O-])c1ccc(-c2nc(-c3ccncc3)c(-c3ccc(F)cc3)[nH]2)cc1` (stereo not drawn) [SB203580], for which the “effect of kinase inhibitor” value with hiPSO-derived IECs [1] is recorded as “almost no effect”.
Regarding `CCc1c2c(nc3ccc(O)cc13)-c1cc3c(c(=O)n1C2)COC(=O)[C@]3(O)CC` [SN-38], the “cytotoxic effect (cell viability)” value in the series with hiPSO-derived IECs [2] and in the series with hPIO-derived IECs was “confirmed” throughout.
Turning to `Oc1c2ccccc2c2c3c(cccc13)N=N2` [SP600125], the “effect of kinase inhibitor” value in the series on hiPSO-derived IECs [1] is “almost no effect”.
On to `OCc1ccc(-c2nn(Cc3ccccc3)c3ccccc23)o1` [YC-1, 3-(5′-hydroxymethyl-2′-furyl)-1-benzyl indazole], for which the “cytotoxicity against Caco-2 cells” value with Caco-2 cells is “least cytotoxicity; also recorded: very little”. For the same compound, in series [3], the “anti-apoptotic protein XIAP level” value is “decreased”; the “cleavage of caspase-8, RIP1, caspase-3 and PARP” value was “dose-dependently induced the cleavage”. Also, in series [4], the “CCND1 mRNA levels” value is “downregulated” and the “VIL1 mRNA levels” value is listed as “downregulated”. Also, in the series with hiPSO-derived IECs [2], the IEC-selective dose-dependent cytotoxicity result was “identified” and the “cytotoxicity against IECs” value is “significant cytotoxicity”.
Consider `COC(=O)Nc1c(N)nc(-c2nn(Cc3ccccc3F)c3ncc(F)cc23)nc1N` [vericiguat], for which, in the series on hiPSO-derived IECs [1] (48 h), the “toxicity against IECs (cell viability)” value is recorded as “little toxicity”.
